Measurements as given in patent US20060069132A1, “Azolecarboxamide herbicides” (priority 2004, published 2006).

Columns and labels:
barnyardgrass [1] = test: Test B pre-/postemergence herbicide test; assay type: in vivo, Echinochloa crus-galli; conditions: for Plant response rating (0 to 100 scale), Barnyardgrass: 0 is no effect; for Barnyardgrass plant response rating: postemergence
How it was run: (§1)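 Flooded paddy rice and barnyardgrass were treated at the 2-leaf stage; upland plantings received compound either on sown seed or on 1- to 4-leaf seedlings. All were kept 13–15 days in a greenhouse and scored visually, 0–100, relative to untreated plants.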

Surinam grass = test: Test B pre-/postemergence herbicide test; assay type: in vivo, Urochloa decumbens; conditions: for Plant response rating (0 to 100 scale), Surinam Grass: 0 is no effect
How it was run: (§2)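 Seeds were planted and treated preemergence with compounds formulated in a non-phytotoxic solvent mixture containing surfactant, while plants at the 1- to 4-leaf stage (2 to 18 cm) received postemergence sprays. Flooded paddy plants were grown to the 2-leaf stage. After 13 to 15 days in a greenhouse, injury was visually rated 0–100 against untreated controls.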

cocklebur = test: Test B pre-/postemergence herbicide test; assay type: in vivo, Xanthium strumarium; conditions: for Plant response rating (0 to 100 scale), Cocklebur: 0 is no effect; for Cocklebur plant response rating: postemergence
How it was run: as §1

corn = test: Test B pre-/postemergence herbicide test; assay type: in vivo, Zea mays; conditions: for Corn plant response rating: postemergence; for Plant response rating (0 to 100 scale), Corn: 0 is no effect, preemergence
How it was run: as §2

large crabgrass = test: Test B pre-/postemergence herbicide test; assay type: in vivo, Digitaria sanguinalis; conditions: for Plant response rating (0 to 100 scale), Crabgrass, Large: 0 is no effect; for Crabgrass, Large plant response rating: postemergence
How it was run: as §2

giant foxtail = test: Test B pre-/postemergence herbicide test; assay type: in vivo, Setaria faberi; conditions: for Plant response rating (0 to 100 scale), Foxtail, Giant: 0 is no effect; for Foxtail, Giant plant response rating: postemergence
How it was run: as §2

lambsquarters = test: Test B pre-/postemergence herbicide test; assay type: in vivo, Chenopodium album; conditions: for Plant response rating (0 to 100 scale), Lambsquarters: 0 is no effect, preemergence
How it was run: as §2

morningglory = test: Test B pre-/postemergence herbicide test; assay type: in vivo, Ipomoea coccinea; conditions: for Morningglory plant response rating: scale 0 (no effect) to 100 (complete control); for Plant response rating (0 to 100 scale), Morningglory: 0 is no effect, 100 is complete control
How it was run: as §1

pigweed = test: Test B pre-/postemergence herbicide test; assay type: in vivo, Amaranthus retroflexus; conditions: for Plant response rating (0 to 100 scale), Pigweed: 0 is no effect, preemergence
How it was run: as §2

blackgrass = test: Test B postemergence herbicide test; assay type: in vivo, Alopecurus myosuroides; conditions: postemergence
How it was run: (§3)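 After treating 2-leaf paddy plants or 2–18 cm postemergence plants (1 to 4 leaves) with formulated chemical, researchers kept them in a greenhouse for 13–15 days. Effects were judged visually versus controls: 0 indicates none, 100 total control.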

wheat = test: Test B postemergence herbicide test; assay type: in vivo, Triticum aestivum; design: key to Wheat plant response rating: 0 = no effect, 100 = complete control
How it was run: (§4)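 Visual ratings, 0 (no effect) to 100 (complete control), made versus controls after 13–15 d greenhouse. Paddy plants treated at 2-leaf stage; postemergence plants at 1- to 4-leaf stage, 2–18 cm tall.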

wild oat = test: Test B postemergence herbicide test; assay type: in vivo, Avena fatua
How it was run: as §4

rice = test: Test B flooded paddy test; assay type: in vivo, Oryza sativa; conditions: 1000 g ai/ha, scale 0 to 100 (0 no effect, 100 complete control)
How it was run: as §4

[2] = test system: small flower umbrella sedge; test: Test B flooded paddy test; assay type: in vivo, Cyperus difformis; conditions: 1000 g ai/ha, scale 0 to 100 (0 no effect, 100 complete control)
How it was run: as §3

ducksalad = test: Test B flooded paddy test; assay type: in vivo, Heteranthera limosa; conditions: 1000 g ai/ha, scale 0 to 100 (0 no effect, 100 complete control)
How it was run: as §3

barnyardgrass [3] = test: Test B flooded paddy test; assay type: in vivo, Echinochloa crus-galli; conditions: 1000 g ai/ha, scale 0 to 100 (0 no effect, 100 complete control)
How it was run: as §3

[4] = 125 g ai/ha, 100 is complete control, preemergence
[5] = 125 g ai/ha, visual rating, scale 0 (no effect) to 100 (complete control)
[6] = 500 g ai/ha, visual rating, 0 = no effect, 100 = complete control, preemergence
[7] = 500 g ai/ha, scale 0 to 100, 0 is no effect, 100 is complete control
[8] = 125 g ai/ha, visual rating, scale 0 (no effect) to 100 (complete control), postemergence
[9] = postemergence, 500 g ai/ha, scale 0 to 100, 0 is no effect, 100 is complete control
[10] = 125 g ai/ha, visual rating, postemergence
[11] = 125 g ai/ha, 100 is complete control
[12] = Postemergence, 500 g ai/ha, scale 0 (no effect) to 100 (complete control)
[13] = 500 g ai/ha, scale 0 to 100, 0 no effect, 100 complete control, preemergence

Row | SMILES | Plant response rating (0 to 100 scale), Barnyardgrass (barnyardgrass [1]; [4]) | Barnyardgrass plant response rating (barnyardgrass [1]; [5]) | Barnyardgrass plant response rating (barnyardgrass [1]; [7]) | Plant response rating (0 to 100 scale), Surinam Grass (Surinam grass; [4]) | Surinam Grass plant response rating (Surinam grass; [8]) | Plant response rating (0 to 100 scale), Cocklebur (cocklebur; [4]) | Cocklebur plant response rating (cocklebur; [5]) | Cocklebur plant response rating (cocklebur; [7]) | Corn plant response rating (corn; [5]) | Corn plant response rating (corn; [7]) | Plant response rating (0 to 100 scale), Crabgrass, Large (large crabgrass; [4]) | Crabgrass, Large plant response rating (large crabgrass; [5]) | Crabgrass, Large plant response rating (large crabgrass; [7]) | Plant response rating (0 to 100 scale), Foxtail, Giant (giant foxtail; [4]) | Foxtail, Giant plant response rating (giant foxtail; [5]) | Foxtail, Giant plant response rating (giant foxtail; [7]) | Lambsquarters plant response rating (lambsquarters; [8]) | Morningglory plant response rating (morningglory; [10]) | Plant response rating (0 to 100 scale), Pigweed (pigweed; [11]) | Pigweed plant response rating (pigweed; [8]) | other results
1 | CCNC(=O)c1ccc(F)c(NC(=O)c2c3c(nn2CC)C(C)(C)CC3)c1 [Compound 353] | 40 | 10 | 10 | 0 | 0 | 0 | 10 | 20 | 10 | 20 | 20 | 10 | 10 | 0 | 20 | 30 | 20 | 10 | 0 | 30 | Plant response rating, Barnyardgrass (barnyardgrass [1]; [6]): 90; Plant response rating, Surinam Grass (Surinam grass; [6]): 30; Surinam Grass plant response rating (Surinam grass; [9]): 10; Plant response rating, Cocklebur (cocklebur; [6]): 20; Plant response rating, Crabgrass, Large (large crabgrass; [6]): 80; Plant response rating, Foxtail, Giant (giant foxtail; [6]): 50; Lambsquarters plant response rating (lambsquarters; [9]): 40; Plant response rating, Morningglory (morningglory; [6]): 20; Pigweed plant response rating (pigweed; [9]): 70; Blackgrass plant response rating (blackgrass; [5]): 10; Blackgrass plant response rating (blackgrass; [7]): 40; Wheat plant response rating (wheat; [8]): 0; Wheat plant response rating (wheat; [9]): 10; Oat, Wild plant response rating (wild oat; [8]): 10; Oat, Wild plant response rating (wild oat; [9]): 40; Rice plant response rating (rice): 40; Sedge, Umbrella plant response rating [2]: 90; Ducksalad plant response rating (ducksalad): 80; Barnyardgrass plant response rating (barnyardgrass [3]): 70
2 | CCOC(=O)c1cccc(NC(=O)c2nn(C(C)(C)CC)nc2CC)c1 [Compound 375] | 20 | 30 | 70 | 40 | 20 | 0 | 30 | 60 | 20 | 40 | 20 | 20 | 40 | 50 | 40 | 70 | 20 | 20 | 70 | 40 | Surinam Grass plant response rating (Surinam grass; [12]): 30; Plant response rating (0 to 100 scale), Corn (corn; [11]): 0; Plant response rating (0 to 100 scale), Lambsquarters (lambsquarters; [11]): 50; Lambsquarters plant response rating (lambsquarters; [12]): 40; Plant response rating (0 to 100 scale), Morningglory (morningglory; 125 g ai/ha, preemergence): 10; Morningglory plant response rating (morningglory; Postemergence, 500 g ai/ha): 40; Pigweed plant response rating (pigweed; [12]): 80; Blackgrass plant response rating (blackgrass; [5]): 30; Blackgrass plant response rating (blackgrass; [7]): 40; Wheat plant response rating (wheat; [8]): 30; Wheat plant response rating (wheat; [13]): 30; Wheat plant response rating (wheat; [12]): 40; Oat, Wild plant response rating (wild oat; [8]): 40; Oat, Wild plant response rating (wild oat; [12]): 50; Rice plant response rating (rice): 40; Sedge, Umbrella plant response rating [2]: 80; Ducksalad plant response rating (ducksalad): 20; Barnyardgrass plant response rating (barnyardgrass [3]): 40
3 | CCc1nn(C(C)(C)C)nc1C(=O)Nc1cccc(C(=O)N(C)CC)c1 [Compound 384] | 90 | 0 | 30 | 100 | 10 | 0 | 30 | 40 | 0 | 10 | 90 | 10 | 40 | 90 | 10 | 30 | 70 | 30 | 90 | 30 | Surinam Grass plant response rating (Surinam grass; [12]): 60; Plant response rating (0 to 100 scale), Corn (corn; [11]): 80; Plant response rating (0 to 100 scale), Lambsquarters (lambsquarters; [11]): 100; Lambsquarters plant response rating (lambsquarters; [12]): 80; Plant response rating (0 to 100 scale), Morningglory (morningglory; 125 g ai/ha, preemergence): 10; Morningglory plant response rating (morningglory; Postemergence, 500 g ai/ha): 40; Pigweed plant response rating (pigweed; [12]): 70; Blackgrass plant response rating (blackgrass; [5]): 20; Blackgrass plant response rating (blackgrass; [7]): 50; Wheat plant response rating (wheat; [8]): 10; Wheat plant response rating (wheat; [13]): 100; Wheat plant response rating (wheat; [12]): 20; Oat, Wild plant response rating (wild oat; [8]): 10; Oat, Wild plant response rating (wild oat; [12]): 30; Rice plant response rating (rice): 90; Sedge, Umbrella plant response rating [2]: 80; Ducksalad plant response rating (ducksalad): 80; Barnyardgrass plant response rating (barnyardgrass [3]): 90
